Laboratory results from patent US20130254944A1, “Herbicide Tolerant Soybeans and Methods of Use” (PIONEER HI BRED INTERNATIONAL INC, priority 2012, published 2013).

Columns and labels:
Assay type in all cases: in vivo
wild type soybean = experiment: Greenhouse postemergence test of ALS-inhibiting herbicides, wild type soybean
Procedure: (§1) Soybean lines having wild type als1 & 2 genes, the Als1 mutation, the Als2 mutation, or both the Als1 and Als2 mutations were evaluated for their response to various herbicides. Two seeds from each line were planted into 4-inch pots containing Redi-Earth potting mix (Sun Gro Horticulture Canada Ltd. 52130 RR65, Seba Beach, Alberta TOE 2B0), with two replications planted for each treatment. Pots were placed in flats at 15 pots/flat, and the resulting plants were grown in a greenhouse environment supplemented with lighting (16 hr photoperiod) for the duration of the test. Selected herbicides representing the mode of action that inhibits the acetolactate synthase enzyme, also known as the acetohydroxyacid synthase enzyme, were applied postemergence to soybean when soybean plants were at the V2 growth stage, which is the stage at which the first two trifoliolate leaves were expanded.
(§2) Eleven active ingredients representing the five chemical families with herbicidal activity on the acetolactate synthase enzyme were tested. These herbicides can cause a phytotoxic response in wild type soybean plants. The five chemical families tested were sulfonylaminocarbonyltriazolinone (also known as triazolinone), imidazolinone, sulfonylurea, pyrimidinylthiobenzoate, and triazolopyrimidine. Application rates ranged from 0.5 times to eight times the currently labeled application rate for each active ingredient with spray application volume at 30 gallons/acre. The application rates tested were 0.5×, 1×, 2×, 4× and 8× the label rate for each herbicide. Herbicidal active ingredients were applied as formulated materials dispersed in water containing 0.25% nonionic surfactant (Trend® 90).
(§3) The test was evaluated by visually scoring plant phenotype 14 days after the herbicides were applied. Controls consisted of soybean plants of the same variety that received no herbicide treatments for each of all the varieties tested. Soybean response was recorded on a zero to 100 visual scale in which zero is no phytotoxic response and 100 is plant death fourteen days after the herbicides were applied. Soybean response (percent phytotoxicity) to postemergence applications of herbicides inhibiting the acetolactate synthase enzyme test results are shown in Table 1.

[1] = test system: soybean having the Als1 mutation; experiment: Greenhouse postemergence test of ALS-inhibiting herbicides, soybean with Als1 mutation; details: for Avg response (% phytotoxicity), Trait Als1: Table 2; for EC10, Als1: rate of herbicide estimated to cause 10% phytotoxic response, loglogistic fit
Procedure: as §1, §2, §3
(§4) Results in Table 1 were evaluated using the isobole method for analyzing interactions. […] Here the biologically active agents that are being assessed for interaction (synergy) are gene mutations in soybean. The effectiveness of the genes in providing improved tolerance to ALS-inhibiting herbicides was assessed by applying increasing doses of herbicides to each soybean line with its mutation(s).
(§5) An isobole reduces a dose response surface in three dimensional space to a two dimensional plot by fixing a defined response level (e.g., 50% response). The isobole plot is a graph in the Cartesian plane with a straight line connecting the isoeffective rates of the individual components of the combination. This straight line represents expected responses for zero interactive combinations. The isoeffective rate used to create the isobole is often the EC50, the rate estimated to elicit 50% response, but other ECx values can be used. Since the isobole method is based on the potency of the components of the combination, an experimental design testing a range of rates expected to elicit the full range of responses (e.g., 0 to maximum response) is best. (Ferry et al. (2005) 2005 Conference on Applied Statistics in Agriculture Proceedings pp 33-50, Manhattan, Kans., Kansas State Univ.; Green and Streibig (1993) Herbicide Mixtures, pp 117-134 in Herbicide Bioassays, Streibig and Hudsk Eds, CRC, Boca Raton, Fla.).
(§6) Loglogistic dose response curves were fit to percent phytotoxicity response data using log 10 of dose (McCullagh and Nelder (1989) Generalized Linear Models, Chapman & Hall, London). Curves were fit using the logit link with normal errors. […]

[2] = test system: soybean having the Als2 mutation; experiment: Greenhouse postemergence test of ALS-inhibiting herbicides, soybean with Als2 mutation; details: for Avg response (% phytotoxicity), Trait Als2: Table 2; for EC10, Als2: rate of herbicide estimated to cause 10% phytotoxic response, loglogistic fit
Procedure: as §1, §2, §3, §4, §5, §6

[3] = test system: soybean having both the Als1 and Als2 mutations; experiment: Greenhouse postemergence test of ALS-inhibiting herbicides and isobole analysis, soybean with Als1 and Als2 mutations; details: for Avg response (% phytotoxicity), Trait Als1 + Als2: Table 2; for EC10, Als1 + Als2: rate of herbicide estimated to cause 10% phytotoxic response, loglogistic fit
Procedure: as §1, §2, §3, §4, §5, §6

[4] = 4.38 g ai/ha postemergence at V2, scored 14 days after application
[5] = 8.75 g ai/ha postemergence at V2, scored 14 days after application
[6] = 17.5 g ai/ha postemergence at V2, scored 14 days after application
[7] = 35 g ai/ha postemergence at V2, scored 14 days after application
[8] = 70 g ai/ha postemergence at V2, scored 14 days after application
[9] = rates 0.5x to 8x the label rate

## Cc1cc(C)nc(NC(=O)NS(=O)(=O)c2ccccc2C(=O)O)n1 [Sulfometuron]
Wild type soybean; [4]
  Soybean response (percent phytotoxicity), Wild type: 60%
Wild type soybean; [5]
  Soybean response (percent phytotoxicity), Wild type: 95%
Wild type soybean; [6]
  Soybean response (percent phytotoxicity), Wild type: 98%
Wild type soybean; [7]
  Soybean response (percent phytotoxicity), Wild type: 98%
Wild type soybean; [8]
  Soybean response (percent phytotoxicity), Wild type: 98%
[1]; [4]
  Soybean response (percent phytotoxicity), Als1: 0%
[1]; 4.38 g ai/ha
  Avg response (% phytotoxicity), Trait Als1: 0%
[1]; [5]
  Soybean response (percent phytotoxicity), Als1: 0%
[1]; 8.75 g ai/ha
  Avg response (% phytotoxicity), Trait Als1: 0%
[1]; [6]
  Soybean response (percent phytotoxicity), Als1: 10%
[1]; 17.5 g ai/ha
  Avg response (% phytotoxicity), Trait Als1: 10%
[1]; [7]
  Soybean response (percent phytotoxicity), Als1: 55%
[1]; 35 g ai/ha
  Avg response (% phytotoxicity), Trait Als1: 55%
[1]; [8]
  Soybean response (percent phytotoxicity), Als1: 80%
[1]; 70 g ai/ha
  Avg response (% phytotoxicity), Trait Als1: 80%
[1]
  EC10, Als1: 14.93 g ai/ha
[1]; the higher doses
  phytotoxicity (in words), soybean containing only the Als1 gene: substantial phytotoxicity
[2]; [4]
  Soybean response (percent phytotoxicity), Als2: 35%
[2]; 4.38 g ai/ha
  Avg response (% phytotoxicity), Trait Als2: 35%
[2]; [5]
  Soybean response (percent phytotoxicity), Als2: 40%
[2]; 8.75 g ai/ha
  Avg response (% phytotoxicity), Trait Als2: 40%
[2]; [6]
  Soybean response (percent phytotoxicity), Als2: 70%
[2]; 17.5 g ai/ha
  Avg response (% phytotoxicity), Trait Als2: 70%
[2]; [7]
  Soybean response (percent phytotoxicity), Als2: 75%
[2]; 35 g ai/ha
  Avg response (% phytotoxicity), Trait Als2: 75%
[2]; [8]
  Soybean response (percent phytotoxicity), Als2: 80%
[2]; 70 g ai/ha
  Avg response (% phytotoxicity), Trait Als2: 80%
[2]
  EC10, Als2: 0.76 g ai/ha
[2]; the higher doses
  phytotoxicity (in words), soybean containing only the Als2 gene: substantial phytotoxicity
[3]; [4]
  Soybean response (percent phytotoxicity), Als1 + Als2: 0%
[3]; 4.38 g ai/ha
  Avg response (% phytotoxicity), Trait Als1 + Als2: 0%
[3]; [5]
  Soybean response (percent phytotoxicity), Als1 + Als2: 0%
[3]; 8.75 g ai/ha
  Avg response (% phytotoxicity), Trait Als1 + Als2: 0%
[3]; [6]
  Soybean response (percent phytotoxicity), Als1 + Als2: 0%
[3]; 17.5 g ai/ha
  Avg response (% phytotoxicity), Trait Als1 + Als2: 0%
[3]; [7]
  Soybean response (percent phytotoxicity), Als1 + Als2: 10%
[3]; 35 g ai/ha
  Avg response (% phytotoxicity), Trait Als1 + Als2: 10%
[3]; [8]
  Soybean response (percent phytotoxicity), Als1 + Als2: 5%
[3]; 70 g ai/ha
  Avg response (% phytotoxicity), Trait Als1 + Als2: 5%
[3]
  EC10, Als1 + Als2: 114.81 g ai/ha
[3]; the higher doses
  tolerance (in words), soybean containing both the Als1 and the Als2 genes: extremely tolerant

## COc1nc(C)nc(NC(=O)NS(=O)(=O)c2ccsc2C(=O)O)n1 [Thifensulfuron]
Wild type soybean; [4]
  Soybean response (percent phytotoxicity), Wild type: 0%
Wild type soybean; [5]
  Soybean response (percent phytotoxicity), Wild type: 10%
Wild type soybean; [6]
  Soybean response (percent phytotoxicity), Wild type: 10%
Wild type soybean; [7]
  Soybean response (percent phytotoxicity), Wild type: 25%
Wild type soybean; [8]
  Soybean response (percent phytotoxicity), Wild type: 45%
[1]; [4]
  Soybean response (percent phytotoxicity), Als1: 0%
[1]; [5]
  Soybean response (percent phytotoxicity), Als1: 0%
[1]; [6]
  Soybean response (percent phytotoxicity), Als1: 0%
[1]; [7]
  Soybean response (percent phytotoxicity), Als1: 0%
[1]; [8]
  Soybean response (percent phytotoxicity), Als1: 0%
[1]; [9]
  phytotoxic response (in words), Als1: did not cause any phytotoxic response
[2]; [4]
  Soybean response (percent phytotoxicity), Als2: 0%
[2]; [5]
  Soybean response (percent phytotoxicity), Als2: 0%
[2]; [6]
  Soybean response (percent phytotoxicity), Als2: 0%
[2]; [7]
  Soybean response (percent phytotoxicity), Als2: 0%
[2]; [8]
  Soybean response (percent phytotoxicity), Als2: 0%
[2]; [9]
  phytotoxic response (in words), Als2: did not cause any phytotoxic response
[3]; [4]
  Soybean response (percent phytotoxicity), Als1 + Als2: 0%
[3]; [5]
  Soybean response (percent phytotoxicity), Als1 + Als2: 0%
[3]; [6]
  Soybean response (percent phytotoxicity), Als1 + Als2: 0%
[3]; [7]
  Soybean response (percent phytotoxicity), Als1 + Als2: 0%
[3]; [8]
  Soybean response (percent phytotoxicity), Als1 + Als2: 0%
[3]; [9]
  phytotoxic response (in words), Als1+Als2: did not cause any phytotoxic response

## COc1nc(C)nc(N(C)C(=O)NS(=O)(=O)c2ccccc2C(=O)O)n1 [Tribenuron]
Wild type soybean; [4]
  Soybean response (percent phytotoxicity), Wild type: 10%
Wild type soybean; [5]
  Soybean response (percent phytotoxicity), Wild type: 70%
Wild type soybean; [6]
  Soybean response (percent phytotoxicity), Wild type: 93%
Wild type soybean; [7]
  Soybean response (percent phytotoxicity), Wild type: 98%
Wild type soybean; [8]
  Soybean response (percent phytotoxicity), Wild type: 98%
[1]; [4]
  Soybean response (percent phytotoxicity), Als1: 0%
[1]; 4.38 g ai/ha
  Avg response (% phytotoxicity), Trait Als1: 0%
[1]; [5]
  Soybean response (percent phytotoxicity), Als1: 0%
[1]; 8.75 g ai/ha
  Avg response (% phytotoxicity), Trait Als1: 0%
[1]; [6]
  Soybean response (percent phytotoxicity), Als1: 0%
[1]; 17.5 g ai/ha
  Avg response (% phytotoxicity), Trait Als1: 0%
[1]; [7]
  Soybean response (percent phytotoxicity), Als1: 0%
[1]; 35 g ai/ha
  Avg response (% phytotoxicity), Trait Als1: 0%
[1]; [8]
  Soybean response (percent phytotoxicity), Als1: 10%
[1]; 70 g ai/ha
  Avg response (% phytotoxicity), Trait Als1: 10%
[1]
  EC10, Als1: 70 g ai/ha
[2]; [4]
  Soybean response (percent phytotoxicity), Als2: 0%
[2]; 4.38 g ai/ha
  Avg response (% phytotoxicity), Trait Als2: 0%
[2]; [5]
  Soybean response (percent phytotoxicity), Als2: 15%
[2]; 8.75 g ai/ha
  Avg response (% phytotoxicity), Trait Als2: 15%
[2]; [6]
  Soybean response (percent phytotoxicity), Als2: 40%
[2]; 17.5 g ai/ha
  Avg response (% phytotoxicity), Trait Als2: 40%
[2]; [7]
  Soybean response (percent phytotoxicity), Als2: 60%
[2]; 35 g ai/ha
  Avg response (% phytotoxicity), Trait Als2: 60%
[2]; [8]
  Soybean response (percent phytotoxicity), Als2: 65%
[2]; 70 g ai/ha
  Avg response (% phytotoxicity), Trait Als2: 65%
[2]
  EC10, Als2: 4.96 g ai/ha
[3]; [4]
  Soybean response (percent phytotoxicity), Als1 + Als2: 0%
[3]; 4.38 g ai/ha
  Avg response (% phytotoxicity), Trait Als1 + Als2: 0%
[3]; [5]
  Soybean response (percent phytotoxicity), Als1 + Als2: 0%
[3]; 8.75 g ai/ha
  Avg response (% phytotoxicity), Trait Als1 + Als2: 0%
[3]; [6]
  Soybean response (percent phytotoxicity), Als1 + Als2: 0%
[3]; 17.5 g ai/ha
  Avg response (% phytotoxicity), Trait Als1 + Als2: 0%
[3]; [7]
  Soybean response (percent phytotoxicity), Als1 + Als2: 0%
[3]; 35 g ai/ha
  Avg response (% phytotoxicity), Trait Als1 + Als2: 0%
[3]; [8]
  Soybean response (percent phytotoxicity), Als1 + Als2: 0%
[3]; 70 g ai/ha
  Avg response (% phytotoxicity), Trait Als1 + Als2: 0%
[3]
  EC10, Als1 + Als2: >70 g ai/ha
